Experimental data from PubChem BioAssay AID2060486 (Molecular Pharmacology Branch, DTP, NCI, 2025).

Tested on: IGROV1 complex spheroids (HUVEC, MSC), viability % test/control
Assay: Anticancer human tumor IGROV1 cell line growth inhibition [GQUAD];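 further: spheroids exposed to compounds for 7 days before readout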
Settings: for IC50: curve of first compound; for viability, T/C: stronger effect = lower value
Source text: DNA G-quadruplex Stabilizer Agents in Combinations in Complex Spheroids
A high-throughput screen of multi-cell type tumor spheroids was designed to identify active combinations of DNA G-quadruplex stabilizer agents and targeted small molecules. Complex spheroids include a stromal component modeled by human endothelial cells (HUVEC) and fibroblasts modeled by human mesenchymal stem cells (MSCs). The concentration ranges selected for each drug and investigational agent were based upon clinically achievable concentrations if the clinical Cmax of the agent was known.
Compounds. The drugs and investigational agents: pidnarulex (CX-5461; NSC782164), APTO-253 (NSC789042), BRACO-19 (NSC847499), peposertib (NSC802822), ceralasertib (NSC780249), elimusertib (NSC800525), camonsertib (NSC841442), AZD-1390 (NSC803789), olaparib (NSC753686), talazoparib (NSC767125), ART-558 (NSC835418), sotorasib (NSC818433), MRTX-1133 (NSC836407), SN-38 (NSC673596), topotecan (NSC609699), etoposide (NSC141540), doxorubicin (NSC123127), gemcitabine (NSC613327), 5-fluorouracil (NSC19893), paclitaxel (NSC125973), vemurafenib (NSC761431), panobinostat (NSC761190), R-306465 (JNJ-16241199; NSC773264), adavosertib (NSC754352), TP-3654 (NSC805149), carboplatin (NSC241240), KSQ-4279 (NSC840948), and staurosporine (NSC755774) were obtained from the National Cancer Institute (NCI) Developmental Therapeutics Program Chemical Repository (34). The FDA-approved anticancer drug set is available from the NCI Developmental Therapeutics Program. […] The stock solutions were prepared in dimethyl sulfoxide (DMSO, Sigma-Aldrich, St. Louis, MO, cat. D2650) at 800-fold the tested concentration and stored at -70 degrees C prior to their use. All drugs and investigational agents were tested over a range starting from a high concentration at or near the clinical Cmax and decreasing in half-log increments. If the clinical Cmax for an agent had not been determined, the highest concentration tested was 10 microM.
2.3 Cell Culture. All cells were maintained in an incubator at 37 degrees C and 5% CO2 with 95% humidity. The PDC lines were cultured according to standard operating procedures established by the NCI PDMR. All PDCs were thawed and cultured in Matrigel-coated flasks prepared with a working solution of 1X Ham's F-12 nutrient mix, without supplementation (Invitrogen, cat. 11765054), 100 U/mL penicillin-streptomycin (Invitrogen, cat. 15140122), and 2.5% Matrigel (Corning Inc., cat. 354248) for the first three passages. The 857933-349-R-J2-PDC line was cultured in 6C/Colon 1B media, which includes advanced DMEM/F-12 (Thermo Fisher Scientific, cat. 12634028), 10 mM HEPES (Thermo Fisher Scientific, cat. 15630080), 1X GlutaMAX supplement (Thermo Fisher Scientific, cat. 35050061), 0.1 mg/mL primocin (InvivoGen, cat. ant-pm-2), 10% defined fetal bovine serum, heat inactivated (HyClone Laboratories Inc., cat. SH30070.03HI), 50% L-WRN conditioned media (ATCC, cat. CRL-3276), 1.25 mM N-Acetyl-L-cysteine (Sigma-Aldrich, cat. A9165), 10 mM nicotinamide (Sigma-Aldrich, cat. N0636), 1X B-27 supplement (Thermo Fisher Scientific, cat. 17504044), 1X N-2 supplement (Thermo Fisher Scientific, cat. 17502048), 10 microM Y-27632 dihydrochloride (Tocris Bioscience, cat. 1254), and 50 ng/mL human EGF recombinant protein (Thermo Fisher Scientific, cat. PHG0311). The 485176-168-R4-J1-PDC line was cultured in Panc media, which includes all 6C/Colon 1B media components plus 100 ng/mL human FGF-10 (Thermo Fisher Scientific, cat. 100-26), 500 nM SB-431542 (Selleckchem, cat. S1067), and gastrin (Tocris, cat. 3006).
[…]

[1] = second compound 0.0316 µM, first compound 0.000999 µM
[2] = second compound 0.0316 µM, first compound 0.00316 µM
[3] = second compound 0.0316 µM, first compound 0.00999 µM
[4] = second compound 0.0316 µM, first compound 0.0316 µM
[5] = second compound 0.0316 µM, first compound 0.0999 µM
[6] = second compound 0.0316 µM, first compound 0.316 µM
[7] = second compound 0.1 µM, first compound 0.000999 µM
[8] = second compound 0.1 µM, first compound 0.00316 µM
[9] = second compound 0.1 µM, first compound 0.00999 µM
[10] = second compound 0.1 µM, first compound 0.0316 µM
[11] = second compound 0.1 µM, first compound 0.0999 µM
[12] = second compound 0.1 µM, first compound 0.316 µM
[13] = second compound 0.316 µM, first compound 0.000999 µM
[14] = second compound 0.316 µM, first compound 0.00316 µM
[15] = second compound 0.316 µM, first compound 0.00999 µM
[16] = second compound 0.316 µM, first compound 0.0316 µM
[17] = second compound 0.316 µM, first compound 0.0999 µM
[18] = second compound 0.316 µM, first compound 0.316 µM
[19] = second compound 1 µM, first compound 0.000999 µM
[20] = second compound 1 µM, first compound 0.00316 µM
[21] = second compound 1 µM, first compound 0.00999 µM
[22] = second compound 1 µM, first compound 0.0316 µM
[23] = second compound 1 µM, first compound 0.0999 µM
[24] = second compound 1 µM, first compound 0.316 µM
[25] = second compound 3.16 µM, first compound 0.000999 µM
[26] = second compound 3.16 µM, first compound 0.00316 µM
[27] = second compound 3.16 µM, first compound 0.00999 µM
[28] = second compound 3.16 µM, first compound 0.0316 µM
[29] = second compound 3.16 µM, first compound 0.0999 µM
[30] = second compound 3.16 µM, first compound 0.316 µM
[31] = second compound 10 µM, first compound 0.000999 µM
[32] = second compound 10 µM, first compound 0.00316 µM
[33] = second compound 10 µM, first compound 0.00999 µM
[34] = second compound 10 µM, first compound 0.0316 µM
[35] = second compound 10 µM, first compound 0.0999 µM
[36] = second compound 10 µM, first compound 0.316 µM

## CC[C@@]1(O)C(=O)OCc2c1cc1n(c2=O)Cc2cc3c(CN(C)C)c(O)ccc3nc2-1 + CN(C)c1ccc(Nc2c3ccc(NC(=O)CCN4CCCC4)cc3nc3cc(NC(=O)CCN4CCCC4)ccc23)cc1
Second compound 0.0316 µM
  IC50: 22.1 nM
Second compound 0.1 µM
  IC50: 24.5 nM
Second compound 0.316 µM
  IC50: 25 nM
Second compound 1 µM
  IC50: 22.8 nM
Second compound 3.16 µM
  IC50: 29.3 nM
Second compound 10 µM
  IC50: < 0.999 nM
[1]
  viability, T/C: 98.2%
[2]
  viability, T/C: 95.7%
[3]
  viability, T/C: 93.1%
[4]
  viability, T/C: 30.5%
[5]
  viability, T/C: 12.2%
[6]
  viability, T/C: 10.9%
[7]
  viability, T/C: 98.1%
[8]
  viability, T/C: 87.8%
[9]
  viability, T/C: 86%
[10]
  viability, T/C: 39.7%
[11]
  viability, T/C: 13.5%
[12]
  viability, T/C: 9.48%
[13]
  viability, T/C: 94.5%
[14]
  viability, T/C: 87.5%
[15]
  viability, T/C: 91.8%
[16]
  viability, T/C: 39.4%
[17]
  viability, T/C: 12.4%
[18]
  viability, T/C: 12.2%
[19]
  viability, T/C: 87.5%
[20]
  viability, T/C: 81.7%
[21]
  viability, T/C: 75.9%
[22]
  viability, T/C: 40.5%
[23]
  viability, T/C: 9.84%
[24]
  viability, T/C: 12.7%
[25]
  viability, T/C: 70.5%
[26]
  viability, T/C: 89.4%
[27]
  viability, T/C: 77.4%
[28]
  viability, T/C: 48.1%
[29]
  viability, T/C: 13.5%
[30]
  viability, T/C: 10.8%
[31]
  viability, T/C: 42.9%
[32]
  viability, T/C: 35%
[33]
  viability, T/C: 37%
[34]
  viability, T/C: 19.1%
[35]
  viability, T/C: 9.45%
[36]
  viability, T/C: 6.49%

## CCc1c2c(nc3ccc(O)cc13)-c1cc3c(c(=O)n1C2)COC(=O)[C@]3(O)CC + CN(C)c1ccc(Nc2c3ccc(NC(=O)CCN4CCCC4)cc3nc3cc(NC(=O)CCN4CCCC4)ccc23)cc1
Second compound 0.0316 µM
  IC50: 1.22 nM
Second compound 0.1 µM
  IC50: 1.05 nM
Second compound 0.316 µM
  IC50: < 0.999 nM
Second compound 1 µM
  IC50: < 0.999 nM
Second compound 3.16 µM
  IC50: < 0.999 nM
Second compound 10 µM
  IC50: < 0.999 nM
[1]
  viability, T/C: 57.5%
[2]
  viability, T/C: 15.8%
[3]
  viability, T/C: 11.4%
[4]
  viability, T/C: 7.01%
[5]
  viability, T/C: 5.52%
[6]
  viability, T/C: 1.54%
[7]
  viability, T/C: 51.9%
[8]
  viability, T/C: 15.3%
[9]
  viability, T/C: 11.3%
[10]
  viability, T/C: 8.79%
[11]
  viability, T/C: 5.38%
[12]
  viability, T/C: 1.47%
[13]
  viability, T/C: 49.7%
[14]
  viability, T/C: 16.7%
[15]
  viability, T/C: 9.1%
[16]
  viability, T/C: 8.69%
[17]
  viability, T/C: 3.87%
[18]
  viability, T/C: 1.5%
[19]
  viability, T/C: 49.5%
[20]
  viability, T/C: 13.7%
[21]
  viability, T/C: 9.93%
[22]
  viability, T/C: 8.16%
[23]
  viability, T/C: 5.08%
[24]
  viability, T/C: 2.04%
[25]
  viability, T/C: 42.3%
[26]
  viability, T/C: 11.4%
[27]
  viability, T/C: 8.41%
[28]
  viability, T/C: 8.25%
[29]
  viability, T/C: 5.52%
[30]
  viability, T/C: 1.58%
[31]
  viability, T/C: 20.3%
[32]
  viability, T/C: 10.7%
[33]
  viability, T/C: 9.09%
[34]
  viability, T/C: 5.5%
[35]
  viability, T/C: 2.71%
[36]
  viability, T/C: 2.02%
